Results on 4 molecules are retold here after ChEMBL document CHEMBL4819042, “Aromatic and Aliphatic Apiuronides from the Bark of Cinnamomum cassia” (J Nat Prod, 2021).

This assay relates to Mus musculus. Put plainly: Analgesic activity against paclitaxel-induced cold allodynia in C57BL/6 mouse model at 10 mg/kg, po administered at day 14 and day 25 of post paclitaxel stimulation and measured after 1 hr. The assay is classed as functional, organism-based.

Active and inactive are the calls of the source. No cut-off for these calls is given here.

Turning to `COc1cc(O[C@@H]2O[C@H](CO[C@@H]3OC[C@](O)(CO)[C@H]3O)[C@@H](O)[C@H](O)[C@H]2O)cc(OC)c1OC`, the result was Active. As for `COc1cc([C@H]2OC[C@H]3[C@@H]2CO[C@@H]3c2cc(OC)c(O)c(OC)c2)cc(OC)c1O`, the outcome was Active. Then `CC1=C(C(C)CO[C@@H]2O[C@H](CO)[C@@H](O)[C@H](O)[C@H]2O)C[C@@]2(O)[C@@]3(C)CC(=O)O[C@@H]4[C@@H](C)CC[C@@]3(O)[C@@]4(O)[C@@]12O` (some centres undefined), with “Active”; and `CC(C)[C@@]1(O)CC2(O)[C@@]3(O)[C@]45O[C@](O)(C[C@@]2(C)[C@@]4(O)CC[C@H](C)[C@H]5O)[C@@]31C`, with “Active”.
